The target of this experiment is T1, GST-RIPK1 (recombinant GST-RIPK1 kinase domain (residues 1-327)) (Homo sapiens, UniProt Q13546).
T1 construct: recombinant GST-RIPK1 kinase domain (residues 1-327) enzyme produced from baculovirus-transfected Sf21 cells; host or cells: baculovirus-transfected Sf21 insect cells
T1 sequence (Q13546 1-327): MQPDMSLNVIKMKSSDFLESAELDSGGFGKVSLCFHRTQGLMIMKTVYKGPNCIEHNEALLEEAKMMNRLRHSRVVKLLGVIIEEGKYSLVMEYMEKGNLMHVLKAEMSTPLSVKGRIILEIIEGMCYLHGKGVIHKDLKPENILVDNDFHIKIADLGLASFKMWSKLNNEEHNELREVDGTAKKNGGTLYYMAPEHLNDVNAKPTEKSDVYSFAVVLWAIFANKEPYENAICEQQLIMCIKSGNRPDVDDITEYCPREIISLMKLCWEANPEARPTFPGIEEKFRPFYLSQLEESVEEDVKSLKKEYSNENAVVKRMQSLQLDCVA
As to the kind of experiment: RIPK1-ADP-Glo Enzymatic Assay. The experiment is classed as biochemical. The settings on record: ten-point titration, top compound concentration of 100000 nM; 25 nM GST-RIPK1, 300 μM ATP, 3 μM dephosphorylated-MBP; 30 min pre-incubation, 150 min reaction. The procedure, abridged:
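GST-RIPK1 kinase domain (residues 1-327, Sf21-expressed), 25 nM, preincubated 30 min with compound, then reacted 150 min with 300 μM ATP and 3 μM dephosphorylated MBP in pH 7.3 Hepes buffer, 1% DMSO. ADP measured by ADP-Glo luminescence; EC50 from ten-point titration (top 100000 nM), four-parameter fit.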

In the case of `N#CCc1ncc(COC2CC3(C2)OC2CC[C@@H](c4cnccn4)N2C3=O)cc1Cl` (stereo partly drawn) [Example 18.98, [3-chloro-5-({[(5′S)-3′-oxo-5′-(pyrazin-2-yl)tetrahydro-3′H-spiro[cyclobutane-1,2′-pyrrolo[2,1-b][1,3]oxazol]-3-yl]oxy}methyl)pyridin-2-yl]acetonitrile], the EC50 (usually the concentration that produces a half-maximal response) turned out to be 198 nM.
As for `CCOc1ncc(COC2CC3(C2)OC2CC[C@@H](c4cnccn4)N2C3=O)cn1` (stereo partly drawn) [Example 18.8, (5′S)-3-[(2-ethoxypyrimidin-5-yl)methoxy]-5′-(pyrazin-2-yl)tetrahydro-3′H-spiro[cyclobutane-1,2′-pyrrolo[2,1-b][1,3]oxazol]-3′-one], the figure is 466 nM; as for `Cc1cc(Cl)cnc1COC1CC2(C1)O[C@@H]1CC[C@@H](c3cnccn3)N1C2=O` (stereo partly drawn) [Example 22.3, (5′S,7a′R)-3-((5-chloro-3-methylpyridin-2-yl)methoxy)-5′-(pyrazin-2-yl)tetrahydro-3′H-spiro[cyclobutane-1,2′-pyrrolo[2,1-b]oxazol]-3′-one], 33 nM.
The value for `CCc1nnc(-c2ccc(COC3CC4(C3)OC3CC[C@@H](c5cnccn5)N3C4=O)cc2)o1` (stereo partly drawn) [Example 18.56, (5′S)-3-{[4-(5-ethyl-1,3,4-oxadiazol-2-yl)phenyl]methoxy}-5′-(pyrazin-2-yl)tetrahydro-3′H-spiro[cyclobutane-1,2′-pyrrolo[2,1-b][1,3]oxazol]-3′-one] was 11 nM; that for `O=C1N2[C@@H](CC[C@H]2c2cnccn2)OC12CC(OCc1csc3ncccc13)C2` (stereo partly drawn) [Example 19.19, (5′S,7a′R)-5′-(pyrazin-2-yl)-3-[(thieno[2,3-b]pyridin-3-yl)methoxy]tetrahydro-3′H-spiro[cyclobutane-1,2′-pyrrolo[2,1-b][1,3]oxazol]-3′-one] was 27 nM; that for `O=C1N2[C@@H](CC[C@H]2c2cnccn2)OC12CC(OCc1cccnc1C(F)(F)F)C2` (stereo partly drawn) [Example 20.6, (5′S,7a′R)-5′-(pyrazin-2-yl)-3-{[2-(trifluoromethyl)pyridin-3-yl]methoxy}tetrahydro-3′H-spiro[cyclobutane-1,2′-pyrrolo[2,1-b][1,3]oxazol]-3′-one] was 86 nM.
In the case of `O=C1N2C(CC[C@H]2c2cnccn2)OC12CC(OCc1cnc3c(c1)CCCC3)C2` (stereo partly drawn) [Example 18.42, (5′S)-5′-(pyrazin-2-yl)-3-[(5,6,7,8-tetrahydroquinolin-3-yl)methoxy]tetrahydro-3′H-spiro[cyclobutane-1,2′-pyrrolo[2,1-b][1,3]oxazol]-3′-one], the EC50 came out at 110 nM.
Consider `O=C1N2[C@@H](CC[C@H]2c2cncc(F)c2)OC12CCC(OCc1ccccc1)CC2` (single isomer, unassigned) [Example 2.2, ((1s or r),4R,5′S,7a′R)-4-(benzyloxy)-5′-(5-fluoropyridin-3-yl)tetrahydro-3′H-spiro[cyclohexane-1,2′-pyrrolo[2,1-b]oxazol]-3′-one], for which the EC50 came to 595 nM.
The value for `COc1ccc2cc(COC3CC4(C3)OC3CC[C@@H](c5cnccn5)N3C4=O)cc(C)c2n1` (stereo partly drawn) [Example 18.41, (5′S)-3-[(2-methoxy-8-methylquinolin-6-yl)methoxy]-5′-(pyrazin-2-yl)tetrahydro-3′H-spiro[cyclobutane-1,2′-pyrrolo[2,1-b][1,3]oxazol]-3′-one] was 53 nM; that for `N#Cc1cc(O[C@H]2C[C@@]3(C2)O[C@@H]2CC[C@@H](c4ccc(F)cc4)N2C3=O)ncn1` [Example 9.1, 6-(((1r,3R,5′S,7a′R)-5′-(4-fluorophenyl)-3′-oxotetrahydro-3′H-spiro[cyclobutane-1,2′-pyrrolo[2,1-b]oxazol]-3-yl)oxy)pyrimidine-4-carbonitrile] was 14 nM; that for `O=C1N2[C@@H](CC[C@H]2c2cnccn2)OC12CC(OCc1cnn(C34CC(C3)C4)c1)C2` (stereo partly drawn) [Example 18.6, (5′S, 7a′R)-3-{[1-(bicyclo[1.1.1]pentan-1-yl)-1H-pyrazol-4-yl]methoxy}-5′-(pyrazin-2-yl)tetrahydro-3′H-spiro[cyclobutane-1,2′-pyrrolo[2,1-b][1,3]oxazol]-3′-one] was 365 nM.
Regarding `O=C1N2[C@@H](CC[C@H]2c2cc(F)cc(F)c2)OC12CC(Oc1ncccc1F)C2` (stereo partly drawn) [Example 9.39, (5′S,7a′R)-5′-(3,5-difluorophenyl)-3-[(3-fluoropyridin-2-yl)oxy]tetrahydro-3′H-spiro[cyclobutane-1,2′-pyrrolo[2,1-b][1,3]oxazol]-3′-one], the EC50 came to 47 nM.
For the compound `N#Cc1cc(OC2CC3(C2)O[C@@H]2CC[C@@H](c4cc(F)cc(F)c4)N2C3=O)ncc1F` (single isomer, unassigned) [Example 17.1, 2-((((Is or r),3S,5′S,7a′R)-5′-(3,5-difluorophenyl)-3′-oxotetrahydro-3′H-spiro[cyclobutane-1,2′-pyrrolo[2,1-b]oxazol]-3-yl)oxy)-5-fluoroisonicotinonitrile], the EC50 came to 86 nM.
On to `N#Cc1ccncc1COC1CC2(C1)OC1CC[C@@H](c3cnccn3)N1C2=O` (stereo partly drawn) [Example 18.45, 3-({[(5′S)-3′-oxo-5′-(pyrazin-2-yl)tetrahydro-3′H-spiro[cyclobutane-1,2′-pyrrolo[2,1-b][1,3]oxazol]-3-yl]oxy}methyl)pyridine-4-carbonitrile], for which the EC50 is 159 nM.
Regarding `O=C1N2[C@@H](CC[C@H]2c2ccccc2)OC12CC(Oc1ccnc(Cl)c1)C2` (stereo partly drawn) [Example 8.11, (5′S,7a′R)-3-[(2-chloropyridin-4-yl)oxy]-5′-phenyltetrahydro-3′H-spiro[cyclobutane-1,2′-pyrrolo[2,1-b][1,3]oxazol]-3′-onee], the EC50 was 32 nM.
Regarding `O=C1N2C(CC[C@H]2c2cnccn2)OC12CC(OCc1ccc3nc(C(F)(F)F)cn3c1)C2` (stereo partly drawn) [Example 18.54, (5′S)-5′-(pyrazin-2-yl)-3-{[2-(trifluoromethyl)imidazo[1,2-a]pyridin-6-yl]methoxy}tetrahydro-3′H-spiro[cyclobutane-1,2′-pyrrolo[2,1-b][1,3]oxazol]-3′-one], the EC50 worked out at 159 nM.
Take `O=C1N2[C@@H](CC[C@H]2c2cc(F)cc(F)c2)O[C@]12C[C@H](Oc1nccc3ncnn13)C2` [Example 9.23, (1r,3R,5′S,7a′R)-5′-(3,5-difluorophenyl)-3-[([1,2,4]triazolo[1,5-c]pyrimidin-5-yl)oxy]tetrahydro-3′H-spiro[cyclobutane-1,2′-pyrrolo[2,1-b][1,3]oxazol]-3′-one]: the EC50 stood at 55 nM.
The value for `O=C1N2[C@@H](CC[C@H]2c2cc(F)cc(F)c2)OC12CC(Oc1cc(-n3cccn3)ncn1)C2` (stereo partly drawn) [Example 9.8, (5′S,7a′R)-5′-(3,5-difluorophenyl)-3-{[6-(1H-pyrazol-1-yl)pyrimidin-4-yl]oxy}tetrahydro-3′H-spiro[cyclobutane-1,2′-pyrrolo[2,1-b][1,3]oxazol]-3′-one] was 24 nM; that for `N#Cc1cc(O[C@H]2C[C@@]3(C2)O[C@@H]2CC[C@@H](c4ccccc4)N2C3=O)ncn1` [Example 9.17, 6-{[(1r,3R,5′S,7a′R)-3′-oxo-5′-phenyltetrahydro-3′H-spiro[cyclobutane-1,2′-pyrrolo[2,1-b][1,3]oxazol]-3-yl]oxy}pyrimidine-4-carbonitrile] was 18 nM; that for `NC(=O)c1ccnc(O[C@H]2C[C@@]3(C2)O[C@@H]2CC[C@@H](c4ccccc4)N2C3=O)c1` [Example 10.5, 2-(((1r,3R,5′S,7a′R)-3′-oxo-5′-phenyltetrahydro-3′H-spiro[cyclobutane-1,2′-pyrrolo[2,1-b]oxazol]-3-yl)oxy)isonicotinamide] was 20 nM.

Values taken from patent publication US20250154173A1 (Merck Sharp & Dohme LLC, priority 2023, published 2025).
